Data set [1] deals with T1, Tyrosine-protein kinase Tec (Homo sapiens, UniProt P42680).
T1 sequence (P42680 whole entry): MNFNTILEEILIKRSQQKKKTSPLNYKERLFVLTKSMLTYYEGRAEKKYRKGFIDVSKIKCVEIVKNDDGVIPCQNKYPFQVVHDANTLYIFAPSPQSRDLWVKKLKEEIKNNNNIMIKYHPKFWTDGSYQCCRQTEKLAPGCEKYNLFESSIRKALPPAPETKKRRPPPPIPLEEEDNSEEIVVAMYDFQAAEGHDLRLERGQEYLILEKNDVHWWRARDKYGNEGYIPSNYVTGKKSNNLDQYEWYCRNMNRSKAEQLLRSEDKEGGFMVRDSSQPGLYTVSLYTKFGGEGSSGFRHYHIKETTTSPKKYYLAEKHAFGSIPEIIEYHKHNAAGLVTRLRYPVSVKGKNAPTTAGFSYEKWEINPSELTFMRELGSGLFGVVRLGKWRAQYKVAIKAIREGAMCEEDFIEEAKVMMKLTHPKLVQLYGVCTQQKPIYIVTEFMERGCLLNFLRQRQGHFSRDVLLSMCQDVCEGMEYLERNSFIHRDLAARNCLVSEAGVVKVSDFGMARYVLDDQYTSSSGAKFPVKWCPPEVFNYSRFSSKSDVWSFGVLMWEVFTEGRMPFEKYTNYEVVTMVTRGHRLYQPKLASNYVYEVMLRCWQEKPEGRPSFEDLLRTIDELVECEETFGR
The experiment in a line: Binding affinity to TEC (unknown origin) assessed as dissociation constant by KINOMEscan analysis.

A short description of data set [2]: Plasma protein binding in human assessed as unbound fraction by rapid equilibrium dialysis method. In kind it is ADME, cell-free.
The target in data set [3] is Receptor tyrosine-protein kinase erbB-2 (Homo sapiens, UniProt P04626). The data set can be described thus: Binding affinity to ERBB2 (unknown origin) assessed as dissociation constant by KINOMEscan analysis.
Receptor tyrosine-protein kinase erbB-2, sequence (P04626 whole entry): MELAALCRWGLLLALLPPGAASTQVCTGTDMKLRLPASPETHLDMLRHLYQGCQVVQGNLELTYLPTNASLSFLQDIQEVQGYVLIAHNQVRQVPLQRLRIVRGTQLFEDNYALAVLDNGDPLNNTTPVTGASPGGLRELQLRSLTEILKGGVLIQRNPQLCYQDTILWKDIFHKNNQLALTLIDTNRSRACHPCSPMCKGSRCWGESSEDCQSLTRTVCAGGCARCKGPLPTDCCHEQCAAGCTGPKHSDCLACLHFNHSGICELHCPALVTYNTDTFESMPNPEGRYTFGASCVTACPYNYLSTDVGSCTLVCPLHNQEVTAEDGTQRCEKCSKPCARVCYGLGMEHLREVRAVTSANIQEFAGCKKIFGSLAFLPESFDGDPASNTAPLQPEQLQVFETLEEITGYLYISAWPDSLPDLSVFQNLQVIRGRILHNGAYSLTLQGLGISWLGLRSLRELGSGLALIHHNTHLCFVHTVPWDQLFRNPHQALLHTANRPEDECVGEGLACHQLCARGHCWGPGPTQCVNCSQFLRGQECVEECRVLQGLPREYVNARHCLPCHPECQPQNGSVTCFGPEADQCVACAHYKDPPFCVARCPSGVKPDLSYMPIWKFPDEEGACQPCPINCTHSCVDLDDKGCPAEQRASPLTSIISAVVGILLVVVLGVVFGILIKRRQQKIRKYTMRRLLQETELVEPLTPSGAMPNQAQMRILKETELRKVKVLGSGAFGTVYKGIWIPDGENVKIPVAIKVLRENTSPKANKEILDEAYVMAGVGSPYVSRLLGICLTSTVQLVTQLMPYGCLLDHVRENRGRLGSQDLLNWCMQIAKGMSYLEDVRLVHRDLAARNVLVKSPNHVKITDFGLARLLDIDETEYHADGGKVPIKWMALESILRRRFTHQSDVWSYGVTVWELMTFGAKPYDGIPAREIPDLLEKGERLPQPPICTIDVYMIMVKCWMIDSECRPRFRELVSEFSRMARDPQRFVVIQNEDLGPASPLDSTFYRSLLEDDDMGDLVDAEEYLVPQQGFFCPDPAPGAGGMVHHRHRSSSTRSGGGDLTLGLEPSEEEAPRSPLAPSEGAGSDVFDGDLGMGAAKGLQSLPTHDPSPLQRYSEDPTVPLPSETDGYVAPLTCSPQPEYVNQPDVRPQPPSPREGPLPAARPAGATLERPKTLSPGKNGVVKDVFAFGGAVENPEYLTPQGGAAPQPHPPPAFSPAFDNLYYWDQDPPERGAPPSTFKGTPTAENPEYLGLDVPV
For data set [4], the target named is T2, Tyrosine-protein kinase TXK (Homo sapiens, UniProt P42681).
T2 sequence (P42681 whole entry): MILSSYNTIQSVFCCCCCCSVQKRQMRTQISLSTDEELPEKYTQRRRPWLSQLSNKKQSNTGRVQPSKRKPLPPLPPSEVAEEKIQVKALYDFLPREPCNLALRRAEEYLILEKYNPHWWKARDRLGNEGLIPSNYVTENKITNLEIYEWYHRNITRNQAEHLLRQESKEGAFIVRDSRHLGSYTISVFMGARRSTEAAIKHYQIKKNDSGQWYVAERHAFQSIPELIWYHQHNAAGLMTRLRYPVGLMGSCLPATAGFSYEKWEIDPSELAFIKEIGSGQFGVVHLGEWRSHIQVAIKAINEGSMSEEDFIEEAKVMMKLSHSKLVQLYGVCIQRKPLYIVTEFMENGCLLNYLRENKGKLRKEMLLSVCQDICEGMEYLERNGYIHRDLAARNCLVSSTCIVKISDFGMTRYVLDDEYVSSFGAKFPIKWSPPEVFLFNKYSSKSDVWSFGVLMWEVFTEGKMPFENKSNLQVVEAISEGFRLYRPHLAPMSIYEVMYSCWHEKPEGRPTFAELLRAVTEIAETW
The experiment in a line: Binding affinity to TXK (unknown origin) assessed as dissociation constant by KINOMEscan analysis.

In data set [5] the target is T3, Tyrosine-protein kinase BTK (Homo sapiens, UniProt Q06187). The experiment in a line: Inhibition of BTK in human Ramos cells assessed as target occupancy. In kind it is cell-based.
T3 sequence (Q06187 whole entry): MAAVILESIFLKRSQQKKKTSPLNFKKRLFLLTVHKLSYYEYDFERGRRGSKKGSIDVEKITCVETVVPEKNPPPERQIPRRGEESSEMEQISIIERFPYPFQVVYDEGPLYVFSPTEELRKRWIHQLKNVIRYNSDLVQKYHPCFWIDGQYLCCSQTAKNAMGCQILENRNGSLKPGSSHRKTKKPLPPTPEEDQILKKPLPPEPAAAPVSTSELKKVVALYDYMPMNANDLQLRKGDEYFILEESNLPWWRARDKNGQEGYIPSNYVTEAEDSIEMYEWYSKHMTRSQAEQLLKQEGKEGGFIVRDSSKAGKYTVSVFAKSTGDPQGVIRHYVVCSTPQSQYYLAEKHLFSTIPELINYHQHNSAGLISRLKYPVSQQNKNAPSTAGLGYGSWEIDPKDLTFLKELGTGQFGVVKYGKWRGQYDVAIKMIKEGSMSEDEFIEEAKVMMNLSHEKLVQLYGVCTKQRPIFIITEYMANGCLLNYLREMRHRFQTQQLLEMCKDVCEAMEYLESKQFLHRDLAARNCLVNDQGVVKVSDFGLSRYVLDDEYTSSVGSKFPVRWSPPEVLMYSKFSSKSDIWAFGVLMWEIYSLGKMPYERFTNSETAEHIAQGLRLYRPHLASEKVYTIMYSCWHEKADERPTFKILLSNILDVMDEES
A further data set deals with T4, Cytochrome P450 2C8 (Homo sapiens, UniProt P10632).
T4 sequence (P10632 whole entry): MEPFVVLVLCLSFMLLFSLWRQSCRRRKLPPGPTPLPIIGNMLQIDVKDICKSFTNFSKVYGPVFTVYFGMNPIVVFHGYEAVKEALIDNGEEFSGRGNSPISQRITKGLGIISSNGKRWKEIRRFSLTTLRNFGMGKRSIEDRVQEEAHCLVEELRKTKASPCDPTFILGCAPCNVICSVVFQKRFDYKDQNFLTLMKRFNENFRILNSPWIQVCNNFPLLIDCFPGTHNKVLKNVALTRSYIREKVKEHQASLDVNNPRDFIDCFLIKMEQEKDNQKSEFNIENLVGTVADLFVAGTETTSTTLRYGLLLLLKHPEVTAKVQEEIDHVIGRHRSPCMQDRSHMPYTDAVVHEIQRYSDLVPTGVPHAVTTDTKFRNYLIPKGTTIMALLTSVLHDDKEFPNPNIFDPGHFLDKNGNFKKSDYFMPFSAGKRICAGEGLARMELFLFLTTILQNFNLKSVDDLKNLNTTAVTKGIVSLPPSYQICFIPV
The experiment in a line: Inhibition of human CYP2C8. In kind it is ADME.

Data set [6] has as its target T3, Tyrosine-protein kinase BTK. The data set can be described thus: Inhibition of BTK (unknown origin).
The next data set deals with Cytochrome P450 2C9 (Homo sapiens, UniProt P11712). The data set can be described thus: Inhibition of human CYP2C9. In kind it is ADME.
Cytochrome P450 2C9, sequence (P11712 whole entry): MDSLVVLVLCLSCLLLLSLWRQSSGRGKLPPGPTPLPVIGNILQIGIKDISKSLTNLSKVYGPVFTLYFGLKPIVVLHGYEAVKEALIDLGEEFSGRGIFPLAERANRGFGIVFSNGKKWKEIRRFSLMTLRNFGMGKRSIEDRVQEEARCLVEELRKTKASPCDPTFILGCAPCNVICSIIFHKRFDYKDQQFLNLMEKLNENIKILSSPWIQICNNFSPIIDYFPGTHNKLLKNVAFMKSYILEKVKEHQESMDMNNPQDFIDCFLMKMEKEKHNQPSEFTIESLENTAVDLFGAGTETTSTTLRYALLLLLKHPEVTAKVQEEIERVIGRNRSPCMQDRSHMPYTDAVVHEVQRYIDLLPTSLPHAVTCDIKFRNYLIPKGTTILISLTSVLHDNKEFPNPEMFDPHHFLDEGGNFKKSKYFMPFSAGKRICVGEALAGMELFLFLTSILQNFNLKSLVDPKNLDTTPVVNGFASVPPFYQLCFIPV
The next data set concerns the target T5, Cytochrome P450 1A2 (Homo sapiens, UniProt P05177).
T5 sequence (P05177 whole entry): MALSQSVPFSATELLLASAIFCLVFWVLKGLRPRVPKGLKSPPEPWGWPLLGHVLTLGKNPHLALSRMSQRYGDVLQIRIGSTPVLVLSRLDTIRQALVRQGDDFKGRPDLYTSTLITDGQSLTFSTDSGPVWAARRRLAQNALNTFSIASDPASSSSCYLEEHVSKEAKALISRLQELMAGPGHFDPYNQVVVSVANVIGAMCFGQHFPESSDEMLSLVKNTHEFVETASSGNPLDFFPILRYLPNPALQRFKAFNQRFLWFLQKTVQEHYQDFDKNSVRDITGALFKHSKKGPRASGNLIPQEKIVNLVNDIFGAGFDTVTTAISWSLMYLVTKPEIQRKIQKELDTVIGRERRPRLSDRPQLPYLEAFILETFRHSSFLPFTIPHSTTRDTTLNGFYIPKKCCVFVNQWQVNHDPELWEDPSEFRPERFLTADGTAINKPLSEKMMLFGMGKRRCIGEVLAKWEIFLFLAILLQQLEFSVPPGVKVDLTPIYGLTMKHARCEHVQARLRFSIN
The data set can be described thus: Inhibition of human CYP1A2. In kind it is ADME.

The nature of data set [7]: Inhibition of CD69 expression on CD19 positive B cells in anti-IgD stimulated human whole blood. The note with it: CD19 positive B cell. In kind it is functional, tissue-based.
Another data set concerns the target Cytochrome P450 2D6 (Homo sapiens, UniProt P10635). The experiment in a line: Inhibition of human CYP2D6. The data set is classed as ADME.
Data set [8] is described as follows: Plasma protein binding in rat assessed as unbound fraction by rapid equilibrium dialysis method. The data set is classed as ADME, cell-free. On the technique in general: Equilibrium dialysis compares concentrations on both sides of a semipermeable membrane.
The subject of the next data set is BCRP. The experiment in a line: Permeability across apical to basolateral side in dog MDCK-BCRP cells. The data set is classed as ADME, cell-based, Canis lupus familiaris. Conditions: read-out: permeability.

Each structure is given as a SMILES string.

Cytochrome P450 2D6, sequence (P10635 whole entry): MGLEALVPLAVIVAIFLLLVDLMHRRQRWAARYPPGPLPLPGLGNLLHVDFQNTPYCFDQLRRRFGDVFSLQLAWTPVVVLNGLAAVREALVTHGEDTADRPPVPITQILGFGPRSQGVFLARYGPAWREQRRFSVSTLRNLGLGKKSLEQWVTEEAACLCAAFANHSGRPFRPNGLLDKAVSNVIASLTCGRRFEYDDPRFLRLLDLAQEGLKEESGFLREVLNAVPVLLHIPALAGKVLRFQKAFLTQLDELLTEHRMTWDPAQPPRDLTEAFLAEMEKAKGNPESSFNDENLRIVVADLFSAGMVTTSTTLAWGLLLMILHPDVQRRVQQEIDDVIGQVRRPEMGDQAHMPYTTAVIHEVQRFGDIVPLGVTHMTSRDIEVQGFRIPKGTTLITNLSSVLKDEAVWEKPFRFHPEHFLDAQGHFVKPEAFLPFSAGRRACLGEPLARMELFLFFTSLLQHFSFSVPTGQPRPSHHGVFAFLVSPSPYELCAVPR

For orientation: Kd means the constant that tells how readily two partners part at equilibrium. Broadly, the fraction unbound is free concentration divided by total concentration. What is called IC50 is the concentration that inhibits the measured activity by half. Consider `C=CC(=O)N(C)CCOc1c(N)ncnc1-c1ccc(CN2CCN(CC(C)C)CC2=O)c(C)c1`, for which the Kd turned out to be 0.24 µM in data set [1], 20 µM in [3] and 6.5 µM in data set [4]. Further, the unbound share (fraction unbound) in data set [2] is 0.227; in [8], 0.169. Also, the IC50 in data set [5] is 0.0031 µM; against Cytochrome P450 2C8, above 10 µM; in data set [6], 0.00022 µM; on Cytochrome P450 2C9 it was above 10 µM; at Cytochrome P450 1A2, above 10 µM; in [7], 0.03 µM. For the same compound, the concentration for half-maximal inhibition (IC50) on Cytochrome P450 2D6 is above 10 µM. Besides, the Papp A→B in the data set with BCRP is 0.4 ×10⁻⁶ cm/s.

The values above are taken from ChEMBL document CHEMBL5131445, “Optimization of a novel piperazinone series as potent selective peripheral covalent BTK inhibitors” (Bioorg Med Chem Lett, 2022).
